In patent US20250282757A1, “ARYL ETHER-SUBSTITUTED HETEROCYCLIC COMPOUNDS AS GLP1R AGONISTS” (MINDRANK AI LTD., priority 2021, published 2025):

Molecular target: GLP-1R (Homo sapiens, UniProt P43220)
Experiment: Agonist activity on GLP-1R, HTRF cAMP detection in stably transfected GLP-1R/HEK293 cells
Format: cell-based
Conditions: for EC50: 30 min incubation; for Max activity: relative to top concentration of reference GLP-1(7-37)
Procedure: Detection of Agonist Activity of the Test Compounds on GLP-1R
• 1) The test compound was dissolved in DMSO and diluted 4-fold with Bravo for a total of 10 concentration gradients (the starting concentration was 1 mM). […] HBSS (10 mL) pre-warmed at 37° C. was added, mixed gently, and centrifuged at 1000 rpm for 5 minutes. The supernatant was discarded and another 10 mL of […] was added and mixed gently. […] The plate was shaken to mix at 2000 rpm for 60 seconds. • 7) The cells in the 384-well plate were incubated in CO2 cell incubator at 37° C. for 30 min. • 8) 10 μL of HTRF cAMP detection solution was added to the 384-well plate, stick with sealing film, and incubated at room temperature for 1 hour. • 9) After 1 hour of incubation, the sealing film was removed. The plate was put into the EnVision microplate reader to read the values of OD665 nm and OD615 nm.

Sequence of GLP-1R (P43220 24-463): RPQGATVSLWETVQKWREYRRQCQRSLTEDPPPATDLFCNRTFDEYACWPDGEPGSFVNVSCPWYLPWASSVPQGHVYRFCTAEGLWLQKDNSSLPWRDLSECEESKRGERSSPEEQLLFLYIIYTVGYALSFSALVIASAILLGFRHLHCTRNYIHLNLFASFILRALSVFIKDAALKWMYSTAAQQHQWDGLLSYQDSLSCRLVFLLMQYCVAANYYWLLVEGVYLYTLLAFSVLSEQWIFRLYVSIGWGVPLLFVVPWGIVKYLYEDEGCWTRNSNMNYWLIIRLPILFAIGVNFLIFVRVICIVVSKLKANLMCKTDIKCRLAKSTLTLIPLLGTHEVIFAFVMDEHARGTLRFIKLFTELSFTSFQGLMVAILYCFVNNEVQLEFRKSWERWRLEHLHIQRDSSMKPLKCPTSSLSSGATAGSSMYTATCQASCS

| Structure (SMILES) | EC50 [nM] | Max activity [%] |
| --- | --- | --- |
| CCn1cncc1Cn1c(CN2CCC(Oc3ccc(F)c(OCc4ccc(Cl)cc4F)n3)CC2)nc2ccc(C(=O)O)cc21 [Compound C11, 2-((4-((6-((4-chloro-2-fluorobenzyl)oxy)-5-fluoropyridin-2-yl)oxy)piperidin-1-yl)methyl)-1-((1-ethyl-1H-imidazol-5-yl)methyl)-1H-benzo[d]imidazole-6-carboxylic acid] | 1.48 | 114.8 |
| CCn1cncc1Cn1c(Cc2ccc(Oc3cccc(COc4ccc(Cl)cc4F)n3)cc2)nc2ccc(C(=O)O)cc21 [Compound C24, 2-(4-((6-((4-chloro-2-fluorophenoxy)methyl)pyridin-2-yl)oxy)benzyl)-1-((1-ethyl-1H-imidazole-5-yl)methyl)-1H-benzo[d]imidazole-6-carboxylic acid] | 1.67 | 76.88 |
| N#Cc1ccc(COc2cccc(OC3CCN(Cc4nc5ccc(C(=O)O)cc5n4C[C@@H]4CCO4)CC3)n2)c(F)c1 [Compound S2, (S)-2-((4-((6-((4-cyano-2-fluorobenzyl)oxy)pyridin-2-yl)oxy)piperidin-1-yl)methyl)-1-(oxetan-2-ylmethyl)-1H-benzo[d]imidazole-6-carboxylic acid] | 5.58 | 139.9 |
| CC1(Cn2c(CN3CCC(Oc4cccc(COc5ccc(C#N)cc5F)n4)CC3)nc3ccc(C(=O)O)cc32)COC1 [Compound C5, 2-((4-((6-((4-cyano-2-fluorophenoxy)methyl)pyridin-2-yl)oxy)piperidin-1-yl)methyl)-1-((3-methyloxetan-3-yl)methyl)-1H-benzo[d]imidazole-6-carboxylic acid] | 2.41 | 112.6 |
| N#Cc1ccc(OCc2cccc(OC3CCN(Cc4nc5ccc(C(=O)O)cc5n4Cc4cncn4CC4CC4)CC3)n2)c(F)c1 [Compound C33, 2-((4-((6-((4-cyano-2-fluorophenoxy)methyl)pyridin-2-yl)oxy)piperidin-1-yl)methyl)-1-((1-(cyclopropylmethyl)-1H-imidazol-5-yl)methyl)-1H-benzo[d]imidazole-6-carboxylic acid] | 0.068 | 99.1 |
| O=C(O)c1ccc2nc(CN3CCC(Oc4cccc(COc5ccc(Br)cc5F)n4)CC3)n(Cc3cncn3CC3CC3)c2c1 [Compound C19, 2-((4-((6-((4-bromo-2-fluorophenoxy)methyl)pyridin-2-yl)oxy)piperidin-1-yl)methyl)-1-((1-(cyclopropylmethyl)-1H-imidazol-5-yl)methyl)-1H-benzo[d]imidazole-6-carboxylicacid] | 1.07 | 134.3 |
| CCn1cncc1Cn1c(CN2CCC(Oc3cccc(OCc4ccc(C#N)cc4F)n3)CC2)nc2ccc(C(=O)O)cc21 [Compound S4, 2-((4-((6-((4-cyano-2-fluorobenzyl)oxy)pyridin-2-yl)oxy)piperidin-1-yl)methyl)-1-((1-ethyl-1H-imidazol-5-yl)methyl)-1H-benzo[d]imidazole-6-carboxylic acid] | 0.29 | 106.9 |
| CCn1cncc1Cn1c(CN2CCC(Oc3cccc(COc4ccc(C#N)cc4F)n3)CC2)nc2ccc(C(=O)O)cc21 [Compound 1, 2-((4-((6-((4-cyano-2-fluorophenoxy)methyl)pyridin-2-yl)oxy)piperidin-1-yl)methyl)-1-((1-ethyl-1H-imidazol-5-yl)methyl)-1H-benzo[d]imidazole-6-carboxylic acid] | 0.088 | 116.8 |
| N#Cc1ccc(OCc2cccc(NC3CCN(Cc4nc5ccc(C(=O)O)cc5n4C[C@@H]4CCO4)CC3)n2)c(F)c1 [Compound C16, (S)-2-((4-((6-((4-cyano-2-fluorophenoxy)methyl)pyridin-2-yl)amino)piperidin-1-yl)methyl)-1-(oxetan-2-ylmethyl)-1H-benzo[d]imidazole-6-carboxylic acid] | 2.54 | 99.2 |
| N#Cc1ccc(OCc2nc(OC3CCN(Cc4nc5ccc(C(=O)O)cc5n4C[C@@H]4CCO4)CC3)ccc2F)c(F)c1 [Compound C83, (S)-2-((4-((6-((4-cyano-2-fluorophenoxy)methyl)-5-fluoropyridin-2-yl)oxy)piperidin-1-yl)methyl)-1-(oxetan-2-ylmethyl)-1H-benzo[d]imidazole-6-carboxylic acid] | 0.705 | 111.1 |
| C#Cc1ccc(OCc2cccc(OC3CCN(Cc4nc5ccc(C(=O)O)cc5n4C[C@@H]4CCO4)CC3)n2)c(F)c1 [Compound C15, (S)-2-((4-((6-((4-ethynyl-2-fluorophenoxy)methyl)pyridin-2-yl)oxy)piperidin-1-yl)methyl)-1-(oxetan-2-ylmethyl)-1H-benzo[d]imidazole-6-carboxylic acid] | 0.807 | 109.1 |
| N#Cc1ccc(SCc2cccc(OC3CCN(Cc4nc5ccc(C(=O)O)cc5n4C[C@@H]4CCO4)CC3)n2)c(F)c1 [Compound C10, (S)-2-((4-((6-((4-cyano-2-fluorophenylthio)methyl)pyridin-2-yl)oxy)piperidin-1-yl)methyl)-1-(oxetan-2-ylmethyl)-1H-benzo[d]imidazole-6-carboxylic acid] | 4.16 | 110.2 |
| CCn1nc(C)cc1Cn1c(CN2CCC(Oc3cccc(COc4ccc(C#N)cc4F)n3)CC2)nc2ccc(C(=O)O)cc21 [Compound C40, 2-((4-((6-((4-cyano-2-fluorophenoxy)methyl)pyridin-2-yl)oxy)piperidin-1-yl)methyl)-1-((1-ethyl-3-methyl-1H-pyrazol-5-yl)methyl)-1H-benzo[d]imidazole-6-carboxylic acid] | 6.5 | 90.7 |
| N#CCC1(Cn2c(CN3CCC(Oc4cccc(CSc5ccc(C#N)cc5F)n4)CC3)nc3ccc(C(=O)O)cc32)CC1 [Compound C13, 2-((4-((6-(((4-cyano-2-fluorophenyl)thio)methyl)pyridin-2-yl)oxy)piperidin-1-yl)methyl)-1-((1-(cyanomethyl)cyclopropyl)methyl)-1H-benzo[d]imidazole-6-carboxylic acid] | 1.82 | 141.7 |
| N#CCC1(Cn2c(CN3CCC(Oc4cccc(COc5ccc(C#N)cc5F)n4)CC3)nc3ccc(C(=O)O)nc32)CC1 [Compound 138, 2-((4-((6-((4-cyano-2-fluorophenoxy)methyl)pyridin-2-yl)oxy)piperidin-1-yl)methyl)-3-((1-(cyanomethyl)cyclopropyl)methyl)-3H-imidazo[4,5-b]pyridine-5-carboxylic acid] | 0.669 | 125.0 |
| CC(C)n1cncc1Cn1c(CN2CCC(Oc3cccc(COc4ccc(Br)cc4F)c3)CC2)nc2ccc(C(=O)O)cc21 [Compound C30, 2-((4-(3-((4-bromo-2-fluorophenoxy)methyl)phenoxy)piperidin-1-yl)methyl)-1-((1-isopropyl-1H-imidazol-5-yl)methyl)-1H-benzo[d]imidazole-6-carboxylic acid] | 5.85 | 121.2 |
| N#CCC1(Cn2c(CN3CCC(Oc4cccc(CSc5ccc(Cl)cc5F)n4)CC3)nc3ccc(C(=O)O)cc32)CC1 [Compound C7, 2-((4-((6-((4-chloro-2-fluorophenylthio)methyl)pyridin-2-yl)oxy)piperidin-1-yl)methyl)-1-((1-(cyanomethyl)cyclopropyl)methyl)-1H-benzo[d]imidazole-6-carboxylic acid] | 23.5 | 90.1 |
